{
  "source": "ChEMBL document CHEMBL1201862",
  "about": "“PubChem BioAssay data set” (2004)",
  "key": {"[1]": {"target": "T1, Oxysterols receptor LXR-beta (Homo sapiens, UniProt P55055)", "T1 sequence (P55055 whole entry)": "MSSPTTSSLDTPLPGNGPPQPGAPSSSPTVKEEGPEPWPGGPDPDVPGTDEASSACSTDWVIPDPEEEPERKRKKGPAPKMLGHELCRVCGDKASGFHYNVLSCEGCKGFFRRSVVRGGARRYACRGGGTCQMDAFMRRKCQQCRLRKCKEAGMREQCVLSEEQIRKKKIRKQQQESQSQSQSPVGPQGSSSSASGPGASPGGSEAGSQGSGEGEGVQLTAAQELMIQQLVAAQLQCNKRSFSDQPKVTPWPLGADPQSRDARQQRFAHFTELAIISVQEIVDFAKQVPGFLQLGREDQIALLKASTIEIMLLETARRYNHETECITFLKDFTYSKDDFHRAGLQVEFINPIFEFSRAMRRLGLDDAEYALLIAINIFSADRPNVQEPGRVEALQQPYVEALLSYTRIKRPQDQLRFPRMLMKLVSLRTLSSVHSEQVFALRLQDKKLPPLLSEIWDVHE", "format": "functional, cell-based"}, "Protein skinhead-1": {"target": "T2, Protein skinhead-1 (Caenorhabditis elegans, UniProt P34707)", "T2 sequence (P34707 whole entry)": "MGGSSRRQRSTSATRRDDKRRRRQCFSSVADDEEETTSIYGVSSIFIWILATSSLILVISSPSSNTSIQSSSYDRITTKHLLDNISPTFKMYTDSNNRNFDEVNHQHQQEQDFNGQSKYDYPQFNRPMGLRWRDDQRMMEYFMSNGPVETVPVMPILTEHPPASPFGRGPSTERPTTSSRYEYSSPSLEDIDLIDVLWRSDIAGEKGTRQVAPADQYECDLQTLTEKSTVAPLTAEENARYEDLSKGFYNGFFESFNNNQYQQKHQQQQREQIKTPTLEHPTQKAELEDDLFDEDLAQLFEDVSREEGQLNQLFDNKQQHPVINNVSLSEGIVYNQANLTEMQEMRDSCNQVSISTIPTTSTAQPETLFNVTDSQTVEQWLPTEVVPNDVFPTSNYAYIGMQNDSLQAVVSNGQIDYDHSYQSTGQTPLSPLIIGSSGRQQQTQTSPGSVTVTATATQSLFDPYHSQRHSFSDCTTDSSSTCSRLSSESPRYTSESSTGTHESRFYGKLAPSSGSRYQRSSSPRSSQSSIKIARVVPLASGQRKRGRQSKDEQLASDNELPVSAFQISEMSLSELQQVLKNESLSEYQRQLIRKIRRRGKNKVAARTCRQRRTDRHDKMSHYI", "format": "functional"}, "[2]": {"target": "Mitogen-activated protein kinase 10 (Homo sapiens, UniProt P53779)", "sequence (P53779 whole entry)": "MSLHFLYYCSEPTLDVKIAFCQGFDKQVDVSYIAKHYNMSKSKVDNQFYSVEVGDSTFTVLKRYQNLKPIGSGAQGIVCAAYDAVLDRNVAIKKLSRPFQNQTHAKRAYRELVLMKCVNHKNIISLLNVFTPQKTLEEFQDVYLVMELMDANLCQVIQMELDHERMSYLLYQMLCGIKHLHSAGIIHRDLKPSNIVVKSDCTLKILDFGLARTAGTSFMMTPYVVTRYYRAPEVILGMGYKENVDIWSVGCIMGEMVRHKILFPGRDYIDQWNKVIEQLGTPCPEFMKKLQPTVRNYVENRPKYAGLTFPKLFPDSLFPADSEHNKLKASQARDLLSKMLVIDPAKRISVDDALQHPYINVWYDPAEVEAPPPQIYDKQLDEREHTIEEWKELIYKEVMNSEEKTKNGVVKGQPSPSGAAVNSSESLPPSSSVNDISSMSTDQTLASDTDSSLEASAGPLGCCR", "experiment": "Dose response biochemical screening assay for inhibitors of c-Jun N-Terminal Kinase 3 (JNK3). [Related pubchem assays: 746 ]"}, "[3]": {"experiment": "P. falciparum Dd2 growth inhibitors, dose response, SYBR Green, cherry-picked samples (AID 1159567)", "format": "functional, cell-based"}, "[4]": {"experiment": "Dd2 malaria parasite growth inhibition potency – SYBR Green, dry powder samples, dose response (AID 1159566);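 further: potency for growth inhibition with lower SYBR green DNA signal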", "format": "functional, cell-based"}, "[5]": {"experiment": "Dd2 parasite growth inhibition in erythrocytes – SYBR Green, dry powder samples, set 9, dose response (AID 1159568)", "format": "functional, cell-based"}, "[6]": {"experiment": "growth inhibition of PfATP4-mutant resistant parasites – NITD609-resistant line, SYBR Green, dry powder, dose response (AID 1159571);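 further: parasites synchronized at ring stage by sorbitol before testing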", "format": "functional, cell-based"}, "[7]": {"experiment": "growth inhibition of yeast DHODH-expressing 3D7 parasites – SYBR Green, dry powder samples, dose response (AID 1159570);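 further: parasite growth measured after 72 hours of compound exposure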", "format": "functional, cell-based"}, "[8]": {"experiment": "NIH-3T3 fibroblast cytotoxicity, dose response, cytotoxicity control, cell-based, fluorescence, Alamar Blue, secondary assay (AID 2327);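 further: NIH-3T3 mouse fibroblasts cultured with fluconazole at 8 µg/mL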", "format": "functional"}, "[9]": {"experiment": "fluconazole-exposed Candida albicans growth modulators – fluorescence, retest, confirmation (AID 2467)", "format": "functional, cell-based"}, "[10]": {"experiment": "viability of PTEN-deleted HCT116 cells – cell-based, HCT116 PTEN knockout, dose response (AID 1047);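 further: cells exposed to compound for 60 hours before readout; potency for loss of cell viability measured by luminescence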", "format": "functional"}, "[11]": {"experiment": "viability of HCT116 lacking mutant beta-catenin – cell-based, human colon tumor, dose response (AID 1045);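 further: cells exposed to compound for 60 hours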", "format": "functional"}, "Nonstructural protein 1": {"target": "Nonstructural protein 1 (Influenza A virus, UniProt Q194T2)", "sequence (Q194T2 whole entry)": "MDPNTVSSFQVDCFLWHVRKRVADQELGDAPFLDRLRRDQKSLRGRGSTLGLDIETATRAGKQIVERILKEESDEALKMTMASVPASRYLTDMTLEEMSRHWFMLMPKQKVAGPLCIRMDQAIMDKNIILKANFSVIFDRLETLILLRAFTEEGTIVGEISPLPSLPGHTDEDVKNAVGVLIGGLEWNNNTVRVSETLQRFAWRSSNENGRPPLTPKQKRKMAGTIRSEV", "format": "functional, Influenza A virus (A/California/07/2009(H1N1))"}, "[12]": {"target": "T3, Polyadenylate-binding protein 1 (Homo sapiens, UniProt P11940)", "T3 sequence (P11940 whole entry)": "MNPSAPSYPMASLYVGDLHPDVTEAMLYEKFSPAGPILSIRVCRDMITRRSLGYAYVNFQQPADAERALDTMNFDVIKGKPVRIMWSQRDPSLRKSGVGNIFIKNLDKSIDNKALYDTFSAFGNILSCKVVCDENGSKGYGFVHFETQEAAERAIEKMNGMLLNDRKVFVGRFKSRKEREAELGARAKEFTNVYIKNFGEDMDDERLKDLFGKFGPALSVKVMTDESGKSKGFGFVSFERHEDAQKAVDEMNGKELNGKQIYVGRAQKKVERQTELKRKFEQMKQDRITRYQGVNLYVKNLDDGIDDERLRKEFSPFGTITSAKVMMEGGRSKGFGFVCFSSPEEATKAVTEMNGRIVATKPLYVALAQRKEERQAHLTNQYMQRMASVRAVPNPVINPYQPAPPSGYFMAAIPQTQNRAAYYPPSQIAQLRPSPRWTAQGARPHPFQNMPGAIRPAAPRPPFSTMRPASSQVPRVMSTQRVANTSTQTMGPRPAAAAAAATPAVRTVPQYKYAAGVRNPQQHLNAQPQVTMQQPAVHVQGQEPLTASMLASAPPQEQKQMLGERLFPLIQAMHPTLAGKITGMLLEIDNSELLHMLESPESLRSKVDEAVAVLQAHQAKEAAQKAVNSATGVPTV", "experiment": "MLLE binding blockers, Cy5 peptide tracer – biochemical, fluorescence polarization, Cy5-PAM2 peptide, secondary, miRNA deadenylation inhibitor project, dose response (AID 602260)", "format": "functional", "conditions": "read-out: IC50_Mean"}, "[13]": {"target": "T3, Polyadenylate-binding protein 1", "experiment": "MLLE domain peptide-binding blockers, IC50 – biochemical, fluorescence polarization, FITC-PAM2 peptide, dose response (AID 602259)", "format": "functional", "conditions": "read-out: IC50_Mean"}},
  "note": "The source made the active and inactive calls.",
  "data": [
    {"compound": "COc1ccc(Oc2cnn(-c3ccccc3)c(=O)c2Br)cc1", "values": [
      {"measurement": "EC50", "setting": "[1]", "value": "> 67.5 µM (inactive)"}
    ]},
    {"compound": "O=C(CSc1nc(-c2ccco2)cc(C(F)(F)F)n1)NC1CCCCCCC1", "values": [
      {"measurement": "IC50", "setting": "Protein skinhead-1", "value": "> 100 µM (inactive)"}
    ]},
    {"compound": "CCc1ccc2c(COC(=O)c3n[nH]c4ccccc34)cc(=O)oc2c1", "values": [
      {"measurement": "IC50", "setting": "[2]", "value": "> 93.1 µM (not active)"}
    ]},
    {"compound": "C[C@@H]1CN([C@@H](C)CO)C(=O)c2cccc(NC(=O)C3CC3)c2O[C@@H]1CN(C)C(=O)Nc1ccc(C(F)(F)F)cc1", "values": [
      {"measurement": "AC50", "setting": "[3]", "value": "0.642 µM (active)"},
      {"measurement": "AC50", "setting": "[4]", "value": "0.275 µM (active)"},
      {"measurement": "AC50", "setting": "[5]", "value": "0.181 µM (active)"},
      {"measurement": "AC50", "setting": "[6]", "value": "0.322 µM (active)"},
      {"measurement": "AC50", "setting": "[7]", "value": "0.312 µM (active)"}
    ]},
    {"compound": "Cn1c(NCc2c[nH]c3ccccc23)nc2ccccc21", "values": [
      {"measurement": "EC50", "setting": "[1]", "value": "> 67.5 µM (inactive)"}
    ]},
    {"compound": "O=C(NC1CCC1)c1ccc(C#CC2CC2)cn1", "values": [
      {"measurement": "EC50", "setting": "[1]", "value": "> 67.5 µM (inactive)"}
    ]},
    {"compound": "S=C(Nc1ccccc1)Nc1nc2ccccc2n1CCOc1ccc(Cl)cc1", "values": [
      {"measurement": "EC50", "setting": "[8]", "value": "11.1 µM (active)"},
      {"measurement": "EC50", "setting": "[9]", "value": "2.58 µM (active)"},
      {"measurement": "IC50", "setting": "Protein skinhead-1", "value": "> 100 µM (inactive)"},
      {"measurement": "EC50", "setting": "[10]", "value": "17.1 µM (active)"},
      {"measurement": "EC50", "setting": "[11]", "value": "16 µM (active)"}
    ]},
    {"compound": "Cc1ccc(NC(=S)NC(=O)C2CCCC2)c(Br)c1", "values": [
      {"measurement": "EC50", "setting": "[1]", "value": "> 67.5 µM (inactive)"}
    ]},
    {"compound": "CNc1cccc2c1C(=O)c1ccccc1C2=O", "values": [
      {"measurement": "IC50", "setting": "Protein skinhead-1", "value": "> 100 µM (inactive)"},
      {"measurement": "IC50", "setting": "Nonstructural protein 1", "value": "8.18 µM (active)"},
      {"measurement": "IC50", "setting": "[12]", "value": "> 66 µM (inactive)"},
      {"measurement": "IC50", "setting": "[13]", "value": "49.1 µM (inactive)"}
    ]},
    {"compound": "c1csc(Cn2nnnc2CN2CCN(c3nc4ccccc4s3)CC2)c1", "values": [
      {"measurement": "IC50", "setting": "Protein skinhead-1", "value": "> 100 µM (inactive)"}
    ]}
  ]
}
